Data on 6 compounds can be found in US20070149523A1, “Thiazole Analogues and Uses Thereof” (priority 2005, published 2007).

Assay [1] concerns the target T1, PDGF-Rβ (Homo sapiens, UniProt P09619). In words: Cellular Receptor Tyrosine Kinase Assay (autophosphorylation, sandwich ELISA). The format is cell-based. Set-up: host or cells: unnamed cell line. Particulars: ligand-induced receptor autophosphorylation in cells. As to the method:
(§1) The effect of thiazole derivatives was tested by determining the inhibition of different receptor tyrosine kinases (RTKs) in various cell lines which expressed the following growth factor receptors: EGF-R, PDGF-R, TIE2, IGF-1R, EPHB4, and VEGF-R2. Receptor autophosphorylation was induced by specific ligands for each receptor. […] Test compounds were applied to cells prior to stimulation. Cells were lysed using a standard lysis buffer preserving the distinct phosphoprotein levels. RTK-phosphorylation was quantified via sandwich ELISA using receptor-specific capture antibodies and a phosphotyrosine antibody.
(§2) Sigmoidal inhibitor curves based on relative inhibition compared with phosphorylation levels under high control conditions were generated which allowed the determination of IC50 values for each test compound.

Assay [2] addresses T2, VEGF-R2 (Homo sapiens, UniProt P35968). Described as above. The assay is classed as cell-based. Also on record: host or cells: unnamed cell line. Particulars: ligand-induced receptor autophosphorylation in cells. The method, then: as §1, §2
Target sequence in this assay (P35968 20-1356, species assumed): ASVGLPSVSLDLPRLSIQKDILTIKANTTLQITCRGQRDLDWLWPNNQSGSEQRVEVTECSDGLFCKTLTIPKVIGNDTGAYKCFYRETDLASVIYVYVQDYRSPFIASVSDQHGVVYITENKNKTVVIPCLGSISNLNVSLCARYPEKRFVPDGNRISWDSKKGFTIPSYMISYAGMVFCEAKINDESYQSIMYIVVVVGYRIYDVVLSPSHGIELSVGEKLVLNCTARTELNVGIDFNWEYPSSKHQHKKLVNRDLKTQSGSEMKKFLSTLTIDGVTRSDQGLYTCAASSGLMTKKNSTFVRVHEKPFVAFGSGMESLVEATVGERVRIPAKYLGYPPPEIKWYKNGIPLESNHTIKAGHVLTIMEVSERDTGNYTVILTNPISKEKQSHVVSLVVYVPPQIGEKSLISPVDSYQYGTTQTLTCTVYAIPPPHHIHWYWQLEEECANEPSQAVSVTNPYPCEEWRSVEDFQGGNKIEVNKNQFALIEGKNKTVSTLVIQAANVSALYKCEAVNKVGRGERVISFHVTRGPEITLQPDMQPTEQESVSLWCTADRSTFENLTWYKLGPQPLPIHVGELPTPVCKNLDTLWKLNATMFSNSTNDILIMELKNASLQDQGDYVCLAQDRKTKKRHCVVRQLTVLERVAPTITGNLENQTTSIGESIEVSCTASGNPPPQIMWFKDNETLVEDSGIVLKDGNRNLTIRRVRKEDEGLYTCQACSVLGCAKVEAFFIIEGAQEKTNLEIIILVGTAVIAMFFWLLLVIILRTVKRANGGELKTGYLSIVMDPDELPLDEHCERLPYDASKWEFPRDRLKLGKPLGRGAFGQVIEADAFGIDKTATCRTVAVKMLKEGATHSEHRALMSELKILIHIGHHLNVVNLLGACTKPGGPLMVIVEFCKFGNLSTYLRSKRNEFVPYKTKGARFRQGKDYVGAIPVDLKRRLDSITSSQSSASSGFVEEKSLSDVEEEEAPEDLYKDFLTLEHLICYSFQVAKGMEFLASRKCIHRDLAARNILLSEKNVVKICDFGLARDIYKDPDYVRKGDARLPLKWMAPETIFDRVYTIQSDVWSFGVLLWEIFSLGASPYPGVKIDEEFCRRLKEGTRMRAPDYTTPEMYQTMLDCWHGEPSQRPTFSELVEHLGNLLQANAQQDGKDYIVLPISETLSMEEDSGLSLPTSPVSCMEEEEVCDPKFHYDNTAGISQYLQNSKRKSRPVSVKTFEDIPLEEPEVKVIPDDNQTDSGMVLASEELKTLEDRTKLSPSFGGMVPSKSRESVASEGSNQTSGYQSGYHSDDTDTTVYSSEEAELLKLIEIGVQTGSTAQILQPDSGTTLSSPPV
The next assay addresses T3, VEGF-R3 (Homo sapiens, UniProt P35916).
T3 construct: made in house; host or cells: Sf9 insect cells (baculovirus)
In words: In vitro protein kinase assay (radioisotopic 33P, FlashPlate). The assay is classed as biochemical. The conditions noted are these: recombinant human kinase. The method, then:
(§3) The effect of the thiazole derivatives was tested on recombinant, human protein kinases in in vitro protein kinase assays.
(§4) The protein kinases were expressed in Sf9 insect cells as human recombinant GST-fusion proteins or as His-tagged proteins by means of the baculovirus expression system.
(§5) The kinase activity was measured with a radioisotopic protein kinase assay by measuring the incorporation of ^33P-phosphate into proteins or peptide substrates. The assays were performed in FlashPlate™ microtiter scintillation plates and incorporation of ^33P-phosphate was determined with a microplate scintillation counter.

The next assay concerns the target T4, FLT3 (Homo sapiens, UniProt P36888).
T4 construct: made in house; host or cells: Sf9 insect cells (baculovirus)
T4 sequence (P36888 27-993): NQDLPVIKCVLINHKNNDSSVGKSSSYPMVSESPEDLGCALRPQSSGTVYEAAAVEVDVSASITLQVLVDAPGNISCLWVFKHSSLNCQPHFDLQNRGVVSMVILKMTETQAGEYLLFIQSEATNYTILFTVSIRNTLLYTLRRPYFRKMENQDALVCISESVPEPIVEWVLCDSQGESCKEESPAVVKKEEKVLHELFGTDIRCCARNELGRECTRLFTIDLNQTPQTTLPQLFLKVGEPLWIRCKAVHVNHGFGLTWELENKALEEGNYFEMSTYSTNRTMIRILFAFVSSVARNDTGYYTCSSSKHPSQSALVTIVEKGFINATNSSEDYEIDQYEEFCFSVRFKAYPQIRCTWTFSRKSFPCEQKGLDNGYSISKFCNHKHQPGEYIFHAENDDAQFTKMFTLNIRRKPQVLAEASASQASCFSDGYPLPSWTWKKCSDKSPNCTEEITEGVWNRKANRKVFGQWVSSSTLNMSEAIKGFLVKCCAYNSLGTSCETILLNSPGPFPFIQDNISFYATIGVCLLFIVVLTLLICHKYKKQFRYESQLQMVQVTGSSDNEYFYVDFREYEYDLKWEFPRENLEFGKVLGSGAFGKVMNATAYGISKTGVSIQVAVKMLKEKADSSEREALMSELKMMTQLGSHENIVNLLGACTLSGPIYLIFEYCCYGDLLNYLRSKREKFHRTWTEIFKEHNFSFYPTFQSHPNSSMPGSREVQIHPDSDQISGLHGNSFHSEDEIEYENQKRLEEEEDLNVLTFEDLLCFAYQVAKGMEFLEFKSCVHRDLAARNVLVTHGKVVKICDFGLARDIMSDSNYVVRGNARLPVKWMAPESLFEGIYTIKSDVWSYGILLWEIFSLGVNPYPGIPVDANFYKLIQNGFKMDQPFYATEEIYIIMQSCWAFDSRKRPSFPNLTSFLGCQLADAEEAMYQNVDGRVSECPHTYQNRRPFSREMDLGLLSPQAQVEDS
The assay is described as above. The assay is classed as biochemical. The conditions noted are these: recombinant human kinase. The method, then:
as §3, §4, §5

The target in the next assay is T5, TIE2 (Homo sapiens, UniProt Q02763).
T5 construct: made in house; host or cells: Sf9 insect cells (baculovirus)
The assay is described as above. The format is biochemical. The conditions noted are these: recombinant human kinase. As to the method:
as §3, §4, §5

The target of the next assay is T6, Aurora A (Homo sapiens, UniProt O14965).
T6 construct: made in house; host or cells: Sf9 insect cells (baculovirus)
T6 sequence (O14965 1-403): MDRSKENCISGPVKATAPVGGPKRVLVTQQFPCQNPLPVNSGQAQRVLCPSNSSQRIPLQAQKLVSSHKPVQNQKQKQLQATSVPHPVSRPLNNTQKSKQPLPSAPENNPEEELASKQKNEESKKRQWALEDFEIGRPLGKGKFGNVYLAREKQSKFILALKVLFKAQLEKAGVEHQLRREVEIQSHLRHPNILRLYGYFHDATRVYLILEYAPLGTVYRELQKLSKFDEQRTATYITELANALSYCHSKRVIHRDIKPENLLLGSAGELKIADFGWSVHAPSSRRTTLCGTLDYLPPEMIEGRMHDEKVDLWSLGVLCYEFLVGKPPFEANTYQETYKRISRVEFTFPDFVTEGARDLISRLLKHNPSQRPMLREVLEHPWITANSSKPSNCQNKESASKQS
Described as above. The assay is classed as biochemical. Particulars: recombinant human kinase. The method, then: as §3, §4, §5

Assay [3] has as its target T7, Aurora B (Homo sapiens, UniProt Q96GD4). In words: Cellular Aurora-B Kinase Assay (endoreduplication of genomic DNA, PI/FACS). The format is cell-based. Set-up: endogenous in cells; host or cells: HT29 colon carcinoma cells. Particulars: HT29 colon-carcinoma cells, 3 days treatment, EndoR-population. As to the method:
The effect of thiazole derivatives was tested in a cellular Aurora-B assay by measuring the effect of the test compounds on the endoreduplication (EndoR) of genomic DNA. Endoreduplication is detectable in cells as DNA-content higher then 4 n. Propidium Iodine (PI) was used to quantify the DNA content using a fluorescence activated cell sorter (FACS).
In the experiment, HT29 colon-carcinoma cells were treated with test compounds at different concentrations for 3 days. On day 5 cells were harvested and fixed in methanol. On day 6 cells were rehydrated and incubated with RNAse A and PI. Incorporated PI was detected by FACS measuring fluorescence emission at 650 nm upon excitation at 488 nm. For each compound concentration the percentage of EndoR-population as compared to the whole cell population was determined. For estimation of IC50 values of Aurora-B inhibition the percentages of EndoR-populations were plotted versus compound concentrations.

Assay [4] deals with T1, PDGF-Rβ. In words: In vitro protein kinase assay (radioisotopic 33P, FlashPlate). The format is biochemical. Also on record: made in house; host or cells: Sf9 insect cells (baculovirus). The conditions noted are these: recombinant human kinase. The method, then:
as §3, §4, §5

Assay [5] has as its target T7, Aurora B. Described as above. The assay is classed as biochemical. Also on record: made in house; host or cells: Sf9 insect cells (baculovirus). The conditions noted are these: recombinant human kinase. The method, then:
as §3, §4, §5

Assay [6] concerns the target T2, VEGF-R2. The description is as above. The format is biochemical. Also on record: made in house; host or cells: Sf9 insect cells (baculovirus). The conditions noted are these: recombinant human kinase. The method, then: as §3, §4, §5
Target sequence in this assay (P35968 20-1356): as the sequence (P35968 20-1356, species assumed) above
In the next assay the target is T8, EGF-R (Homo sapiens, UniProt P00533).
T8 construct: made in house; host or cells: Sf9 insect cells (baculovirus)
Described as above. The conditions noted are these: recombinant human kinase. The format is biochemical. As to the method:
as §3, §4, §5

T3 sequence (P35916 25-1363): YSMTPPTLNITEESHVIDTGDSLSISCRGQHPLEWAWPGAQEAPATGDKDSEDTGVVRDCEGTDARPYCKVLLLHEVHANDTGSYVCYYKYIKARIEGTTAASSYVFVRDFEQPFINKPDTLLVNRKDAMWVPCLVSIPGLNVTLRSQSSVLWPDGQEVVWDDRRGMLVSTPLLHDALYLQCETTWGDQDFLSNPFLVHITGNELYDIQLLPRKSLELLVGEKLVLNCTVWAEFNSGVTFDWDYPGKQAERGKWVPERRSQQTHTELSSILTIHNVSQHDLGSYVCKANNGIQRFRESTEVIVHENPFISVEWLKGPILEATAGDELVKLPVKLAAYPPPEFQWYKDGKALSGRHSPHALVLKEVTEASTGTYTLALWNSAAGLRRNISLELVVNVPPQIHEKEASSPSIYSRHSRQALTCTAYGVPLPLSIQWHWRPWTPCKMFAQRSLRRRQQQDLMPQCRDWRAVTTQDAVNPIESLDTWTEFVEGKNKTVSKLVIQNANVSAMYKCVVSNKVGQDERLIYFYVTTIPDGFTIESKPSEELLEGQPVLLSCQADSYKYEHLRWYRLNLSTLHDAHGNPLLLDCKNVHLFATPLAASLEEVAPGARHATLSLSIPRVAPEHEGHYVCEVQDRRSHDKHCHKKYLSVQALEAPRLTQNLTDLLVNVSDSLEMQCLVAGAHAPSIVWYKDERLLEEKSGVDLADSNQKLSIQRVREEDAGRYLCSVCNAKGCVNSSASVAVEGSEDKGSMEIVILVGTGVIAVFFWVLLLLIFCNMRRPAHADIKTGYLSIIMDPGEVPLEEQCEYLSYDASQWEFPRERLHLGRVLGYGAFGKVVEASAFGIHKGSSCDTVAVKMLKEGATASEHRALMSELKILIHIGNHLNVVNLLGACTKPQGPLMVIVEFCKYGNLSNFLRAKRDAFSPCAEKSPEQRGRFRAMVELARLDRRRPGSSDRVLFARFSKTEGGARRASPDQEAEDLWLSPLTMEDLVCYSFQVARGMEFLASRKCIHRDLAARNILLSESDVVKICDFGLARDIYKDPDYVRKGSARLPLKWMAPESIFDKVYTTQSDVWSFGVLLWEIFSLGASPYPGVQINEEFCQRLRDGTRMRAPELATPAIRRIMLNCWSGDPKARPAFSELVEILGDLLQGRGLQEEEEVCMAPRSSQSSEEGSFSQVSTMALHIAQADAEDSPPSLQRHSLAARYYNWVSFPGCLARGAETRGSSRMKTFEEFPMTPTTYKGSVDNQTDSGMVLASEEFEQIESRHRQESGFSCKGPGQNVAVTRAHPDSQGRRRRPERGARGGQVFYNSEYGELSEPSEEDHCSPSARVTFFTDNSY
T5 sequence (Q02763 23-1124): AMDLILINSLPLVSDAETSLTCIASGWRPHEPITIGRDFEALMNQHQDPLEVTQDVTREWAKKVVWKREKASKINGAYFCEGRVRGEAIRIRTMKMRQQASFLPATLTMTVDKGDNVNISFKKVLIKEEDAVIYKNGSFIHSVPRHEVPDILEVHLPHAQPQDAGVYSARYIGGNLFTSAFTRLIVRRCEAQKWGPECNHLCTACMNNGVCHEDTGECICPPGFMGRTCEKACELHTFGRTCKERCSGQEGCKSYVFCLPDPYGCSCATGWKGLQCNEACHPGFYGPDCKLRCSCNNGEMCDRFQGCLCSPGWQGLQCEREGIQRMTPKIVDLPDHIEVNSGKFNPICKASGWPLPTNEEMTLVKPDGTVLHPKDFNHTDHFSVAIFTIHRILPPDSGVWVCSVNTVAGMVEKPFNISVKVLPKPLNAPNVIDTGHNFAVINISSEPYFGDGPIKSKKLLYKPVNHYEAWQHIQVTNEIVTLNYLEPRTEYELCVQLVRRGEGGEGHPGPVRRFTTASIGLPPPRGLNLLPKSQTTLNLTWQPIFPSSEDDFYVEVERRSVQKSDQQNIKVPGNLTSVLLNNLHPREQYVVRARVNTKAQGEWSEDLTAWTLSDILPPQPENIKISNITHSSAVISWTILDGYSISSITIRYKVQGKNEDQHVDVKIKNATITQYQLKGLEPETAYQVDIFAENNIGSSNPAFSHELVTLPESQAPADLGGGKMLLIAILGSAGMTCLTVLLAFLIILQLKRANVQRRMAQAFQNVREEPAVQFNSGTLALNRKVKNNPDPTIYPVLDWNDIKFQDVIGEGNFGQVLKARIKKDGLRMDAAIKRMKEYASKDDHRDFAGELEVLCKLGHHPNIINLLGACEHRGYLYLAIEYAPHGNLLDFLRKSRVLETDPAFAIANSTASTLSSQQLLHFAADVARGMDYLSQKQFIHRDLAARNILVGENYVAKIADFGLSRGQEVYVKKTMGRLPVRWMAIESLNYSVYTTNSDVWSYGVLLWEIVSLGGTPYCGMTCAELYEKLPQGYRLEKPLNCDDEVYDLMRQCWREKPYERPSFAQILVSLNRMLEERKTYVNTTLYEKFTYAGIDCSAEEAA
T7 sequence (Q96GD4 whole entry): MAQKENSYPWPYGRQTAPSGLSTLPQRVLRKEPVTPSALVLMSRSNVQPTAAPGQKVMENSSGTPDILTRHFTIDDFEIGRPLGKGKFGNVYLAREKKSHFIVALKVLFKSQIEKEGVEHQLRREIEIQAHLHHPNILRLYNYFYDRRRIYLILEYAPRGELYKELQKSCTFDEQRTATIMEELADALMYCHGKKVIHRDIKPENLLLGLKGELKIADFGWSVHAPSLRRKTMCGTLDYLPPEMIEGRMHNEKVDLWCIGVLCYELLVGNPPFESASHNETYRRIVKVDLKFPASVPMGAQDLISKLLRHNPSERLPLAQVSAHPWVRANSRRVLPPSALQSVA

For the compound `COc1cc2c(Nc3ncc(CCNC(=O)c4cccc(F)c4)s3)ncnc2cc1OCCCN1CCCC1` [Compound 1, 3-fluoro-N-(2-{2-[6-methoxy-7-(3-pyrrolidin-1-yl-propoxy)-quinazolin-4-ylamino]-thiazol-5-yl}-ethyl)-benzamide], the IC50 against PDGF-Rβ [1] is 1100 nM; at VEGF-R2 [2], 14000 nM; at VEGF-R3, 2200 nM; on FLT3, 5500 nM; on TIE2, 900 nM; on Aurora A, 100 nM. In addition, the IC50 against Aurora B [3] was 1100 nM; at PDGF-Rβ [4] it was 11000 nM; on Aurora B [5], 360 nM; at VEGF-R2 [6], 2600 nM.
Consider `COc1cc2c(Nc3ncc(CCNC(=O)c4ccccc4)s3)ncnc2cc1OCCCN1CCCC1` [Compound 2, N-(2-{2-[6-methoxy-7-(3-pyrrolidin-1-yl-propoxy)-quinazolin-4-ylamino]-thiazol-5-yl}-ethyl)-benzamide], for which the IC50 at VEGF-R3 is 2800 nM; at FLT3, 11000 nM; at EGF-R it was 20000 nM; on TIE2, 1000 nM; on Aurora A it was 160 nM; on PDGF-Rβ [4] it was 15000 nM. Also, the IC50 amounted to 620 nM at Aurora B [5] and 2000 nM on VEGF-R2 [6].
For the compound `COC(=O)CCc1cnc(Nc2ncnc3cc(OC)c(OC)cc23)s1` [Compound 3, 3-[2-(6,7-dimethoxy-quinazolin-4-ylamino)-thiazol-5-yl]-propionic acid methyl ester], the IC50 came out at 560 nM at VEGF-R3; 8900 nM on FLT3; 4000 nM on EGF-R; 3400 nM at TIE2; 990 nM on Aurora A; 11000 nM at PDGF-Rβ [4]. Moreover, the IC50 on Aurora B [5] came to 2400 nM; at VEGF-R2 [6], 390 nM.
Take `COc1cc2c(Nc3ncc(CCC(=O)Nc4cccc(F)c4)s3)ncnc2cc1OCCCN1CCCC1` [Compound 5, N-(3-fluoro-phenyl)-3-{2-[6-methoxy-7-(3-pyrrolidin-1-yl-propoxy)-quinazolin-4-ylamino]-thiazol-5-yl}-propionamide]: the IC50 at VEGF-R3 is 74 nM; at FLT3 it was 380 nM; on EGF-R, 29000 nM; on TIE2, 360 nM; at Aurora A it was 400 nM; on PDGF-Rβ [4], 560 nM. For the same compound, the IC50 at Aurora B [5] was 610 nM; on VEGF-R2 [6] it was 65 nM.
As for `COc1cc2ncnc(Nc3ncc(CCC(=O)Nc4cccc(F)c4)s3)c2cc1OC` [Compound 7, 3-(2-(6,7-dimethoxyquinazolin-4-ylamino)thiazol-5-yl)-N-(3-fluorophenyl)propanamide], the IC50 at VEGF-R3 was found to be 1100 nM; on FLT3, 25000 nM; on EGF-R, 43000 nM; at TIE2 it was 21000 nM; at Aurora A, 1300 nM; on PDGF-Rβ [4], 41000 nM. In addition, the IC50 on Aurora B [5] worked out at 2900 nM; at VEGF-R2 [6] it was 1500 nM.
For `COc1cc2ncnc(Nc3ncc(CCC(=O)Nc4ccc(F)cc4)s3)c2cc1OC` [Compound 8, 3-(2-(6,7-dimethoxyquinazolin-4-ylamino)thiazol-5-yl)-N-(4-fluorophenyl)propanamide], the IC50 at VEGF-R3 came to 1100 nM; on FLT3, 5400 nM; on EGF-R, 61000 nM; at TIE2 it was 14000 nM; at Aurora A, 6000 nM; at PDGF-Rβ [4], 27000 nM. For the same compound, the IC50 on Aurora B [5] is 2300 nM; at VEGF-R2 [6], 960 nM.
